Like-named read-outs stand apart in the source and are kept apart here.
Assays:
[1] = test system: colorectal cancer; conditions: cited from earlier work
[2] = test system: H292 human non-small cell lung carcinoma cell line; conditions: H292 cells in culture; single agent or combination
Experimental: To monitor cell apoptosis, DNA fragmentation was measured by using a commercially available kit from Roche. Cells were plated in 90 ul of 10% serum-containing growth media at a density of 5000 cells/well in a 96-well culture plate. On day 2, cells were treated with 10 ul of 10× concentrations of drugs or DMSO alone for a final well volume of 100 ul. After 48 h treatment with the drugs, the cells were assayed for DNA fragmentation according to the manufacture instructions. Results were calculated as fold of induction of DNA fragmentation of the DMSO controlled cells.

[3] = test system: H292 human non-small cell lung carcinoma cell line; conditions: H292 cells in culture; single agent or combination; remark: listed apart in the source
Experimental: The basis of the assay is a luminescent quantitation of ATP present in a cell culture plate well. In essence, the greater the number of viable cells in the well, the greater the level of ATP present. […] Results were calculated as a fraction of the DMSO controlled cells.

For `O=c1[nH]cc(F)c(=O)[nH]1` [5-fluorouracil], the response rates ([1]; single-agent treatment for advanced colorectal cancer) is listed as “about 10%”.

For `O=C1[O][Pt]2([NH][C@@H]3CCCC[C@H]3[NH]2)[O]C1=O` [oxaliplatin], the response rates ([1]; combined with 5-FU and leucovorin, first-line treatment for colorectal cancer) is given as 25-40%.

In the case of `C#Cc1cccc(Nc2ncnc3cc(OCCOC)c(OCCOC)cc23)c1` [TARCEVA™, [6,7-bis(2-methoxyethoxy)-4-quinazolin-4-yl]-(3-ethynylphenyl)amine], the induction of apoptosis [2] is reported as “induced apoptosis” and the “inhibition of cell proliferation” value [3] is reported as “inhibited cell proliferation”.
